Test results as given in US4963530A, “Renin inhibitor peptide compounds, a process for the preparation thereof and pharmaceutical composition comprising the same” (Fujisawa Pharmaceutical Company, Ltd., priority 1987, dated 1990).
Where a chain is given by its changes, count along the chain named.

Columns and labels:
[1] = biological target: T1, endogenous renin in human plasma (Homo sapiens, UniProt P00797); experiment: Test 1: inhibition of human plasma renin activity (Ang I formation, RIA); assay type: biochemical; conditions: human plasma pool, pH 6.0, 37° C., 90 minutes incubation, Probit method; read-out: IC50 (concentration that inhibited plasma renin activity by 50%)
T1 construct: incubation (37° C.) of the endogenous renin and angiotensinogen in plasma at pH 6.0; from tissue; host or cells: pooled human plasma (EDTA) from male volunteers
T1 sequence (P00797 67-406): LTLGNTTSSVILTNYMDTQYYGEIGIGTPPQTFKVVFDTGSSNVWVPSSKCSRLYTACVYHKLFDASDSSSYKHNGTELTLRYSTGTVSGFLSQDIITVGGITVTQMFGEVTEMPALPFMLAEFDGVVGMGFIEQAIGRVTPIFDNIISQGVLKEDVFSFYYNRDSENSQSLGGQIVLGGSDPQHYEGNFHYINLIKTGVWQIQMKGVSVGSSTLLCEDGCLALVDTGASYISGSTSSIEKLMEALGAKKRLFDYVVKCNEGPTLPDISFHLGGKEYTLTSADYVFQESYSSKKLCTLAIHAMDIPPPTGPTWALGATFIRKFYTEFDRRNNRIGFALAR
Experimental: Human plasma was collected from male volunteers pretreated with no drugs and used as a pool. Disodium salt of ethylenediaminetetraacetic acid (EDTA) was used as the anticoagulant. Plasma renin activity was measured as the rate of angiotensin I (Ang I) formation after incubation (37° C.) of the endogenous renin and angiotensinogen in plasma at pH 6.0. The incubation mixture contained 250 μl of plasma, 5 μl of (phenylmethyl)sulfonyl fluoride, 30 μl of buffer (sodium, potassium-phosphate, pH 6.0), and 15 μl of an appropriate concentration of test compound in 50% ethyl alcohol-water vehicle. The Ang I formed after 90 minutes of incubation was measured by radioimmunoassay (RIA) which was carried out with a commercial kit, RENCTK 100 (manufactured by Commissariat A L'energie Atomique). Samples were incubated in duplicate and each tube was measured in duplicate in the RIA. Percentage inhibition of plasma renin activity was calculated by comparing the amount of Ang I produced with and without a test compound. The concentration of test compound that inhibited plasma renin activity by 50% ) (IC50) was determined by Probit method.

[2] = Test 2: hypotensive effect (mean arterial blood pressure) in sodium-depleted conscious cynomolgus monkeys, oral; assay type: in vivo, cynomolgus monkeys (Macaca fascicularis); conditions: 32 mg/kg po, sodium-depleted (furosemide) conscious cynomolgus monkeys, MAP measured 0-6 hours
Experimental: (§1) Male or female cynomolgus monkeys (Macaca fascicularis) weighing about 2.5-3.5 kg were used. Sodium depletion was achieved by administering furosemide, 15 mg/kg subcutaneously one day before and then 10 mg/kg intravenously 30 minutes before the administration of the test compound.
(§2) Test compounds were dissolved in diluted equimolar hydrochloric acid (pH 5-6) and orally administered to conscious and trained monkeys placed in restraining chairs with pneumatic cuff positioned around the arm for oscillometric measurement of mean arterial blood pressure (MAP) (Model BP-203 NPJ, manufactured by Nippon Colin).
The MAP was measured at 0 (predosing base line), 0.5, 1, 2, 3, 4 and 6 hours after administration of the test compound. The maximum hypotensive effect was calculated as the maximum percentage fall of MAP from the pretreatment value.

[3] = biological target: T2, plasma renin activity (PRA) (Macaca fascicularis, UniProt Q6DLS0); experiment: Test 2: inhibition of plasma renin activity (PRA) in sodium-depleted cynomolgus monkeys after oral dosing; assay type: in vivo, cynomolgus monkeys (Macaca fascicularis); conditions: cynomolgus monkey; 32 mg/kg po, sodium-depleted (furosemide) cynomolgus monkeys, plasma collected 0-6 hours after dosing; read-out: Maximum inhibition of PRA
T2 construct: plasmas were obtained for determination of plasma renin activity (PRA); from tissue; host or cells: plasma of sodium-depleted cynomolgus monkeys, collected after oral dosing
T2 sequence (Q6DLS0 67-406): T1 sequence (P00797 67-406) with T2A, I148L, S169A
Experimental: as §1, §2
Blood samples were collected at 0, 0.5, 1, 2, 4 and 6 hours after dosing from the antecubital vein of the monkey into disodium salt of EDTA coated tubes, centrifuged for 10 min (3000 rpm, 4° C.) and plasmas were obtained for determination of plasma renin activity (PRA). PRA was measured as the rate of Ang I formation with the same principle as illustrated in Test 1. 100 μl of sample plasma was mixed with 100 μl of the solution of angiotensinase inhibitors (3 mM 8-hydroxyquinoline sulfate and 5 mM 2,3-dimercaptopropanol , SB-REN-1, SORIN BIOMEDICA, Italy). Half (100 μl) of the mixture was incubated at 37° C. for one hour and Ang I formed was determined by a commercial RIA kit (DINABOTT). […] Percentage inhibition of PRA was calculated by the following formula: [formula] […]

IC50 [1] [nM]	inhibition at 32 mg/kg [3] [%]	SMILES	Maximum hypotensive effect (maximum percentage fall of MAP from pretreatment value) [2] [%]
61		CC(C)CC[C@H](O)[C@H](CC1CCCCC1)NC(=O)[C@H](Cc1c[nH]cn1)NC(=O)[C@H](Cc1ccccc1)NC(=O)N1CCOCC1 [Test Compound (a), 2(S)-(N-Morpholinocarbonyl-L-phenylalanyl-L-histidyl)amino-1-cyclohexyl-3(S)-hydroxy-6-methylheptane]	
21	96	CC(C)CC[C@H](O)[C@H](CC1CCCCC1)NC(=O)[C@H](Cc1c[nH]cn1)N(C)C(=O)[C@H](Cc1ccccc1)NC(=O)N1CCOCC1 [Test Compound (b), 2(S)-(N-Morpholinocarbonyl-L-phenylalanyl-N^α -methyl-L-histidyl)amino-1-cyclohexyl-3(S)-hydroxy-6-methylheptane]	25
24		CC(C)CC[C@H](O)[C@H](CC1CCCCC1)NC(=O)[C@H](Cc1c[nH]cn1)N(C)C(=O)[C@H](Cc1ccccc1)NC(=O)N1CCSCC1 [Test Compound (c), 2(S)-(N-Thiomorpholinocarbonyl-L-phenylalanyl-N^α -methyl-L-histidyl)amino-1-cyclohexyl-3(S)-hydroxy-6-methylheptane]	
60		CC(C)CC[C@H](O)[C@H](CC1CCCCC1)NC(=O)[C@H](Cc1c[nH]cn1)N(C)C(=O)[C@H](Cc1ccccc1)NC(=O)N1CCc2ccccc2C1 [Test Compound (d), 2(S)-[N-(1,2,3,4-Tetrahydroisoquinolin-2-ylcarbonyl)-L-phenylalanyl-N^α -methyl-L-histidyl]amino-1-cyclohexyl-3(S)-hydroxy-6-methylheptane]	
